Experimental data taken from paper PMC12380353, “MK-8527 is a novel inhibitor of HIV-1 reverse transcriptase translocation with potential for extended-duration dosing” (PLOS Biology, 2025).

Key:
HIV-1 [1] = experiment: Single-cycle antiviral assay in PBMCs; format: cell-based
Experimental: To evaluate the ability of inhibitors to prevent HIV-1 infection in primary cells, human PBMCs obtained from Biological Specialty Corporation (Colmar, PA, USA) were used to assess antiviral activity. The proviral variants used for these studies were generated by site-directed mutagenesis in a proviral vector derived from NL43 [52] that encodes GFP (pNLG1-P2A-GFP). Virus was produced by transfection in 293T cells.
PBMCs were activated with phytohemagglutinin (PHA) at 5 μg/mL in Roswell Park Memorial Institute (RPMI) 1640 medium containing 10% heat-inactivated fetal bovine serum (FBS) for 2–3 days. Compound plates were prepared by dispensing compounds dissolved in DMSO into 384-well poly-d-lysine-coated plates (0.2 μL per well) using an Echo acoustic dispenser (Labcyte; San Jose, CA, USA). Each compound was tested in a 10-point serial 3-fold dilution (typical final concentrations: 5,000 to 0.1 nM). Controls included no inhibitor (DMSO only) and a combination of 3 antiviral agents, efavirenz, indinavir, and the integrase strand transfer inhibitor, L-002254051, at final concentrations of 4 μM each. PHA-activated human PBMCs were washed and resuspended in RPMI 1640 containing 10% NHS and 30 units per mL of interleukin-2 (IL-2) at 6 × 10^5 cells per mL. PBMCs were added to the compound plates and cultured for 24 h at 37 °C, 5% CO2, and 90% humidity. The appropriate HIV-1 variant was added to the PBMCs and cultured at 37 °C, 5% CO2, and 90% humidity for an additional 24 h.
HIV-1–infected cells were quantified by counting the number of GFP cells in each well using an Acumen eX3 scanner (SPT Labtech; Melbourn, UK).

HIV-1 [2] = experiment: Multicycle antiviral assay in MT4-GFP cells; format: cell-based; settings: 10% NHS
Experimental: Compounds were evaluated for their ability to prevent HIV-1 infection in MT4-GFP cells as described in Diamond, and colleagues. HIV-1 replication was monitored using the MT4-gag-GFP clone D3, and MT4 cells with a GFP reporter gene, the expression of which is dependent on the HIV-1 expressed proteins tat and rev. […] Proviral variants used for these studies were generated by site-directed mutagenesis in the WT R8 proviral plasmid. Virus was produced by transfection in 293T cells.
Briefly, MT4-GFP cells were cultured overnight with the appropriate HIV-1 variant at an approximate multiplicity of infection of 0.01. After approximately 19 h of infection, the cells were washed and resuspended in assay media containing 10% normal human serum (NHS) before being added to 384-well compound plates containing 10-point serial 3-fold dilutions of compound. Controls included no inhibitor (dimethyl sulfoxide [DMSO] only) and a combination of 3 antiviral agents, efavirenz, indinavir, and an integrase strand transfer inhibitor, L-002254051, at final concentrations of 4 µM each. The infected or treated cells were cultured at 37 °C, 5% CO2, and 90% humidity until evaluation of infection was conducted at approximately 48 and 72 h post-infection by counting the number of GFP cells in each well using an Acumen eX3 scanner (SPT Labtech; Melbourn, UK). The reproductive ratio, R, was calculated by dividing the number of infected cells at 72 h by the number at 48 h post-infection. The percentage inhibition caused by a test compound was calculated by the following formula:
inhibition = [1−(Rtest compound − Rpositive control)]/(RDMSO only − Rpositive control) × 100%\]
The dose–response curves of each test compound were plotted as percentage inhibition versus the test concentration.

[3] = CellTiter-Glo (CTG) cytotoxicity in MT4-GFP cells; settings: human
MT4-GFP cells = experiment: CellTiter-Glo (CTG) cytotoxicity in MT4-GFP cells; settings: read-out: MT4-GFP CTG CC50, CellTiter-Glo
[4] = Human immunodeficiency virus 1, PBMC, read-out: PBMC IC50, HIV-1, single-cycle assay, human PBMCs, 10% NHS
[5] = Human immunodeficiency virus 1, WT HIV-1, multicycle assay

Row | Compound | IC50 (HIV-1 [1]; [4]) | IC50 (HIV-1 [2]; [5]) | CC50 [3] | MT4-GFP IC50 (HIV-1 [2]; WT HIV-1, multicycle assay) | IC50 (HIV-1 [1]; HIV-1, single-cycle assay, human PBMCs, 10% NHS, read-out: PBMC IC50) | IC50 (HIV-1 [2]; WT HIV-1, multicycle assay) | CC50 (MT4-GFP cells) | PBMC IC50 (HIV-1 [1]; HIV-1, single-cycle assay, human PBMCs, 10% NHS)
1 | C#C[C@]1(CO)O[C@@H](c2ccc3c(N)ncnn23)C[C@@H]1O [Compound 16, (2R,3S,5R)-5-(4-aminopyrrolo[2,1-f][1,2,4]triazin-7-yl)-2-ethynyl-2-(hydroxymethyl)tetrahydrofuran-3-ol] | 0.0192 µM | 0.0216 µM | 22.3 µM | – | – | – | – | –
2 | C#C[C@]1(CO)O[C@@H](n2ccc3c(N)ncnc32)C[C@@H]1O [Compound 5, (2R,3S,5R)-5-(4-amino-7H-pyrrolo[2,3-d]pyrimidin-7-yl)-2-ethynyl-2-(hydroxymethyl)tetrahydrofuran-3-ol] | 0.0009 µM | 0.0019 µM | 30.8 µM | – | – | – | – | –
3 | C#C[C@]1(CO)C[C@@H](n2ccc3c(N)nc(Cl)nc32)C[C@@H]1O [Compound 19, (1S,2S,4R)-4-(4-amino-2-chloro-7H-pyrrolo[2,3-d]pyrimidin-7-yl)-2-ethynyl-2-(hydroxymethyl)cyclopentan-1-ol] | 1.16 µM | 22.6 µM | > 42 µM | – | – | – | – | –
4 | C#C[C@]1(CO)O[C@@H](n2ccc3c(N)nc(F)nc32)C[C@@H]1O [Compound 11, (2R,3S,5R)-5-(4-amino-2-fluoro-7H-pyrrolo[2,3-d]pyrimidin-7-yl)-2-ethynyl-2-(hydroxymethyl)tetrahydrofuran-3-ol] | 0.0105 µM | 0.0168 µM | > 42 µM | – | – | – | – | –
5 | C#C[C@]1(CO)O[C@@H](n2cnc3c(N)nc(Cl)nc32)C[C@@H]1O [Compound 1, (2R,3S,5R)-5-(6-amino-2-chloro-9H-purin-9-yl)-2-ethynyl-2-(hydroxymethyl)-tetrahydrofuran-3-ol] | 0.0004 µM | 0.0027 µM | > 42 µM | – | – | – | – | –
6 | C#C[C@]1(CO)O[C@@H](n2nnc3c(N)ncnc32)C[C@@H]1O [Compound 15, (2R,3S,5R)-5-(7-amino-3H-[1,2,3]triazolo[4,5-d]pyrimidin-3-yl)-2-ethynyl-2-(hydroxymethyl)tetrahydrofuran-3-ol] | 7.57 µM | 7.59 µM | > 42 µM | completely inactive | – | – | – | –
7 | C#CC1(CO)CC(n2cnc3c(N)nc(F)nc32)CC1O (stereo not drawn) [Compound 17, 4-(6-amino-2-fluoro-9H-purin-9-yl)-2-ethynyl-2-(hydroxy-methyl)cyclopentan-1-ol] | 0.383 µM | 5.02 µM | > 42 µM | – | – | – | – | –
8 | C#C[C@]1(CO)O[C@@H](n2cnc3c(N)nc(C)nc32)C[C@@H]1O [Compound 2, (2R,3S,5R)-5-(6-amino-2-methyl-9H-purin-9-yl)-2-ethynyl-2-(hydroxymethyl)-tetrahydrofuran-3-ol] | 0.0359 µM | 0.109 µM | > 42 µM | – | – | – | – | –
9 | C#C[C@]1(CO)O[C@@H](n2ccc3c(N)nc(N)nc32)C[C@@H]1O [Compound 14, (2R,3S,5R)-5-(2,4-diamino-7H-pyrrolo[2,3-d]pyrimidin-7-yl)-2-ethynyl-2-(hydroxymethyl)tetrahydrofuran-3-ol] | 0.257 µM | 0.277 µM | > 42 µM | – | – | – | – | –
10 | (2R,3S,5R)-5-(4-amino-5-fluoro-7H-pyrrolo[2,3-d]pyrimidin-7-yl)-2-ethynyl-2-(hydroxymethyl)tetrahydrofuran-3-ol [Compound 9] | – | – | – | – | 3.41 µM | 37.2 µM | > 42 µM | –
11 | C#C[C@]1(CO)O[C@@H](n2cnc3c(N)nc(C(F)(F)F)nc32)C[C@@H]1O [Compound 3, (2R,3S,5R)-5-(6-amino-2-(trifluoromethyl)-9H-purin-9-yl)-2-ethynyl-2-(hydroxymethyl)tetrahydrofuran-3-ol] | > 11.9 µM | > 42 µM | > 42 µM | – | – | – | – | –
12 | C#C[C@]1(CO)O[C@@H](n2cnc3c(NC4CC4)nc(F)nc32)C[C@@H]1O [Compound 4, (2R,3S,5R)-5-(6-(cyclopropylamino)-2-fluoro-9H-purin-9-yl)-2-ethynyl-2-(hydroxymethyl)tetrahydrofuran-3-ol] | 3.29 µM | 4.3 µM | > 42 µM | – | – | – | – | –
13 | C#C[C@]1(CO)O[C@@H](n2cc(-c3ccn[nH]3)c3c(N)ncnc32)C[C@@H]1O [Compound 10, (2R,3S,5R)-5-(4-amino-5-(1H-pyrazol-5-yl)-7H-pyrrolo[2,3-d]pyrimidin-7-yl)-2-ethynyl-2-(hydroxymethyl)tetrahydrofuran-3-ol] | 0.907 µM | 1.59 µM | > 42 µM | – | – | – | – | –
14 | C#C[C@]1(CO)C[C@@H](n2cnc3c(=O)[nH]c(N)nc32)C[C@@H]1O [Compound 20, 2-amino-9-((1R,3S,4S)-3-ethynyl-4-hydroxy-3-(hydroxymethyl)-cyclopentyl)-1,9-dihydro-6H-purin-6-one] | 0.0204 µM | 0.103 µM | > 42 µM | – | – | – | – | –
15 | C#C[C@]1(CO)O[C@@H](n2cc(F)c3c(N)nc(Cl)nc32)C[C@@H]1O [Compound 13, (2R,3S,5R)-5-(4-amino-2-chloro-5-fluoro-7H-pyrrolo[2,3-d]pyrimidin-7-yl)-2-ethynyl-2-(hydroxymethyl)tetrahydrofuran-3-ol] | 0.0002 µM | 0.0024 µM | > 42 µM | single-digit nanomolar potency | – | – | – | subnanomolar potency
16 | C#C[C@]1(CO)O[C@@H](n2c(C)cc3c(N)ncnc32)C[C@@H]1O [Compound 6, (2R,3S,5R)-5-(4-amino-6-methyl-7H-pyrrolo[2,3-d]pyrimidin-7-yl)-2-ethynyl-2-(hydroxymethyl)tetrahydrofuran-3-ol] | > 2 µM | > 2 µM | > 42 µM | – | – | – | – | –
17 | C#CC1(CO)CC(n2cnc3c(N)nc(Cl)nc32)CC1O (stereo not drawn) [Compound 18, 4-(6-amino-2-chloro-9H-purin-9-yl)-2-ethynyl-2-(hydroxy-methyl)-cyclopentan-1-ol] | 0.982 µM | 22.7 µM | > 42 µM | – | – | – | – | –
18 | C#C[C@]1(CO)O[C@@H](n2cc(C)c3c(N)ncnc32)C[C@@H]1O [Compound 7, (2R,3S,5R)-5-(4-amino-5-methyl-7H-pyrrolo[2,3-d]pyrimidin-7-yl)-2-ethynyl-2-(hydroxymethyl)tetrahydrofuran-3-ol] | 0.682 µM | 1.68 µM | > 42 µM | – | – | – | – | –
